Results: patent US20180207111A1, “IMMUNOTHERAPY FOR CASR-EXPRESSING CANCER (E.G. NEUROBLASTOMA)” (HOSPITAL SANT JOAN DE DEU, priority 2015, published 2018)

Legend:
SH-SY5Y CaSR/GFP = assay: RT-qPCR mRNA expression in SH-SY5Y CaSR/GFP neuroblastoma cells grown with Cinacalcet; assay type: cell-based, Homo sapiens; conditions: 1 μM Cinacalcet vs DMSO, up to 21 days
Description: Three neuroblastoma cell lines LA-N-1, SK-N-LP and SH-SY5Y were used for this purpose. […] No expression of the CaSR is detectable in SH-SY5Y either. Thus, SK-N-LP and SH-SY5Y were stably transfected with pCMV-CaSR-GFP or pCMV-GFP. All cell lines were grown in the presence of 1 μM Cinacalcet (Selleck Chemicals, S1260) or DMSO for 21 days in P100 plates. Morphology was assessed daily. Total RNA was isolated at days 1, 3, 5, 7, 10, 14 and 21. Several markers were analyzed by RT-qPCR using SYBRgreen and specific primers or Taqman technology and gene-specific Assays-on-Demand (Applied Biosystems) (Table 1).
These features reached maximal expression between days 7 and 14 (FIG. 1). […] Neuroblastoma cytodifferentiation is an indication of this tumor becoming more benign, less proliferative. […] Moreover, upregulation of these differentiation-associated genes and CTAs both in vitro and in vivo (see Examples 2-4) validates the proposed in vitro model (doses used, time of exposure, etc) as a good model to evaluate neuroblastoma response to treatment with Cinacalcet.

LA-N-1 xenografts [1] = assay: RT-qPCR mRNA expression in xenografts; assay type: in vivo, human
Description: (§1) Total RNA was isolated from 8 xenografts exposed to Cinacalcet (C) and 8 from the control group (V). These were the last 8 tumors excised in each group, so that analyzed xenografts were those exposed to the longest period of treatment (V5-V12 and C4-C11). Two different mRNA expression analyses were conducted: Genome-wide expression analysis by microarrays (Example 3) and by RT-qPCR (Example 4).
Validation of microarrays data was conducted by means of RT-qPCR. This technique was performed using SYBRgreen and specific primers or Taqman technology and gene-specific Assays-on-Demand (Applied Biosystems) (Table 1). This technique was also used to analyze the expression of other CTAs (members of the MAGE family and CTCFL), genes associated with differentiation and calcium-signaling pathways in further detail. Upregulation of CTCFL (FIG. 5A), MAGE A2, MAGE A3 and SSX4/48 (FIG. 5B), NTRK3 (FIG. 5C), ADCY8, PRKCA and RYR2 (FIG. 5D) was detected mainly in the two specimens exposed for the longest time to Cinacalcet (C10-C11).

LA-N-1 xenografts [2] = assay: Genome-wide expression analysis of xenografts, Affymetrix Human Gene Array 2.1 ST; assay type: in vivo
Description: as §1
Genome-wide expression analyses were performed using Affymetrix Human and Mouse Gene Array 2.1 ST (Affymetrix, reference number 902136 for human gene array and 902120 for mouse gene array) as per manufacturer's protocol. Procedures to analyze results included: Quality control of the arrays (following this step, xenograft C6 was removed from further analyses); filtering and normalization; selection of differentially expressed genes; single comparison (treated versus control samples); list of differentially expressed genes ranked by significance; Volcano plots showing the most differentially expressed genes; heatmaps of the clustered expression profiles; and analysis of biological significance through enrichment analysis against the Gene Ontologies, KEGG (Kyoto Encyclopedia of Genes and Genomes) and Ingenuity pathways.
However, these differences of gene expression were not statistically significant, adjusted P-value >0.05 (Table 3). Nonetheless, in this first analysis, corresponding to heatmap on FIG. 3, it was apparent that a group of genes were specifically modulated in the three tumors exposed to Cinacalcet for the longest period of time. This was confirmed by a second genome-wide expression analysis that examined differentially expressed genes in these three specimens (C9-C11) compared to the 8 vehicle-treated tumors (V5-V12) (FIG. 4).

[3] = xenografts, RT-qPCR, mainly in C10-C11 (longest exposure), FIG. 5B
[4] = xenografts, RT-qPCR, mainly in C10-C11 (longest exposure), FIG. 5D
[5] = three longest-treated xenografts C9-C11 vs vehicle V5-V12, adjusted P 0.00986984
[6] = three longest-treated xenografts C9-C11 vs vehicle V5-V12, adjusted P 0.01746325
[7] = three longest-treated xenografts C9-C11 vs vehicle V5-V12, adjusted P 0.01874439
[8] = three longest-treated xenografts C9-C11 vs vehicle V5-V12, adjusted P 0.02269447
[9] = three longest-treated xenografts C9-C11 vs vehicle V5-V12, adjusted P 0.0249218
[10] = three longest-treated xenografts C9-C11 vs vehicle V5-V12, adjusted P 0.04520061
[11] = three longest-treated xenografts C9-C11 vs vehicle V5-V12, adjusted P 0.04907024
[12] = three longest-treated xenografts C9-C11 vs vehicle V5-V12, adjusted P 0.05146784
[13] = xenografts C4, C5, C7-C11 vs vehicle V5-V12, 10 mg/kg/day oral, adjusted P 0.35366385
[14] = xenografts C4, C5, C7-C11 vs vehicle V5-V12, 10 mg/kg/day oral, adjusted P 0.52209349
[15] = xenografts C4, C5, C7-C11 vs vehicle V5-V12, 10 mg/kg/day oral, adjusted P 0.61235652

## C[C@@H](NCCCc1cccc(C(F)(F)F)c1)c1cccc2ccccc12 [Cinacalcet]
SH-SY5Y CaSR/GFP
  CTCFL mRNA fold increase: no expression
  MAGEA2 mRNA fold increase: 2.4 fold
  MAGEA3 mRNA fold increase: 14.6 fold
  NFL mRNA fold increase: 2.3 fold
  NTRK1 mRNA fold increase: 2.9 fold
  NTRK3 mRNA fold increase: 4.7 fold
  S100-β mRNA fold increase: 2.2 fold
  SSX4/4B mRNA fold increase: 3.45 fold
  TUBB3 mRNA fold increase: 1.7 fold
SH-SY5Y CaSR/GFP; primer pair GAGE P1
  GAGE-P1 mRNA fold increase: 1.4 fold
SH-SY5Y CaSR/GFP; primer pair GAGE P2
  GAGE-P2 mRNA fold increase: 7.9 fold
SH-SY5Y CaSR/GFP; primer pair GAGE P3
  GAGE-P3 mRNA fold increase: 2.5 fold
LA-N-1 xenografts [1]; xenograft specimen C11, long-term treatment, data not shown
  Increase in relative mRNA expression of GAGE mRNA: up to 100 fold
LA-N-1 xenografts [1]; xenografts, RT-qPCR, mainly in C10-C11 (longest exposure), FIG. 5A
  Relative mRNA expression of CTCFL: Upregulation
LA-N-1 xenografts [1]; [3]
  Relative mRNA expression of MAGE A2: Upregulation
  Relative mRNA expression of MAGE A3: Upregulation
  Relative mRNA expression of SSX4/48: Upregulation
LA-N-1 xenografts [1]; xenografts, RT-qPCR, mainly in C10-C11 (longest exposure), FIG. 5C
  Relative mRNA expression of NTRK3: Upregulation
LA-N-1 xenografts [1]; [4]
  Relative mRNA expression of ADCY8: Upregulation
  Relative mRNA expression of PRKCA: Upregulation
  Relative mRNA expression of RYR2: Upregulation
LA-N-1 xenografts [2]; three longest-treated xenografts C9-C11 vs vehicle V5-V12, adjusted P 0.00358764
  Log fold change, probe 17104825 (CXorf49//CXorf49B): 1.857
LA-N-1 xenografts [2]; [5]
  Log fold change, probe 16695923 (FAM78B): 1.543
  Log fold change, probe 17070589 (CNBD1): 1.801
  Log fold change, probe 17103272 (SSX4B//SSX4): 1.389
  Log fold change, probe 17104821 (CXorf49//CXorf49B): 2.714
LA-N-1 xenografts [2]; three longest-treated xenografts C9-C11 vs vehicle V5-V12, adjusted P 0.01361569
  Log fold change, probe 16972634 (LOC285500): 1.359
LA-N-1 xenografts [2]; three longest-treated xenografts C9-C11 vs vehicle V5-V12, adjusted P 0.01682153
  Log fold change, probe 17103626 (GAGE12G//GAGE12F//GAGE12I//GAGE7//... GAGE family, Entrez 645073): 2.202
LA-N-1 xenografts [2]; [6]
  Log fold change, probe 17103647 (GAGE2A//GAGE2C//GAGE2B//GAGE2D//... GAGE family, Entrez 729447): 2.059
  Log fold change, probe 17103679 (GAGE2A//GAGE2C//GAGE12G//GAGE12F//... GAGE family, Entrez 729447): 2.03
LA-N-1 xenografts [2]; [7]
  Log fold change, probe 16837128 (PRKCA): 1.165
  Log fold change, probe 16926807 (CECR7): 1.23
  Log fold change, probe 17103653 (GAGE12C//GAGE12D//GAGE12E//GAGE12G//... GAGE family, Entrez 729422): 2.183
  Log fold change, probe 17103655 (GAGE12C//GAGE12D//GAGE12E//GAGE12H//... GAGE family, Entrez 729422): 2.032
  Log fold change, probe 17103673 (GAGE12G//GAGE12C//GAGE12D//GAGE12E//... GAGE family, Entrez 645073): 1.962
LA-N-1 xenografts [2]; [8]
  Log fold change, probe 16982161 (PDLIM3): 1.187
  Log fold change, probe 16986694 (SPZ1): 1.239
  Log fold change, probe 17103614 (GAGE12J//GAGE2D//GAGE2E//GAGE8//... GAGE family, Entrez 729396): 1.853
  Log fold change, probe 17103620 (GAGE13//GAGE12D//GAGE12E//GAGE12B//... GAGE family, Entrez 645051): 2.07
  Log fold change, probe 17103690 (GAGE12H//GAGE12C//GAGE12D//GAGE12E//... GAGE family, Entrez 729442): 1.931
  Log fold change, probe 17110576 (SSX4//SSX4B): 1.272
LA-N-1 xenografts [2]; three longest-treated xenografts C9-C11 vs vehicle V5-V12, adjusted P 0.02361429
  Log fold change, probe 16938527 (RBMS3): 1.243
LA-N-1 xenografts [2]; [9]
  Log fold change, probe 16711753 (PROSER2-AS1): 1.36
  Log fold change, probe 16838249 (LOC100507351): 1.078
  Log fold change, probe 17111994 (RGAG4): 1.076
LA-N-1 xenografts [2]; three longest-treated xenografts C9-C11 vs vehicle V5-V12, adjusted P 0.03166044
  Log fold change, probe 17113928 (TENM1): 1.577
LA-N-1 xenografts [2]; three longest-treated xenografts C9-C11 vs vehicle V5-V12, adjusted P 0.04211565
  Log fold change, probe 16679142 (RYR2): 1.356
LA-N-1 xenografts [2]; three longest-treated xenografts C9-C11 vs vehicle V5-V12, adjusted P 0.04288827
  Log fold change, probe 17043613 (LOC100505938): 1.14
LA-N-1 xenografts [2]; [10]
  Log fold change, probe 16970118 (SYNPO2): 1.722
  Log fold change, probe 17115014 (GABRA3): 1.248
LA-N-1 xenografts [2]; three longest-treated xenografts C9-C11 vs vehicle V5-V12, adjusted P 0.0462006
  Log fold change, probe 16732397 (POU2F3): 1.148
LA-N-1 xenografts [2]; [11]
  Log fold change, probe 16752147 (NEUROD4): 1.009
  Log fold change, probe 16928510 (SEZ6L): 1.17
LA-N-1 xenografts [2]; [12]
  Log fold change, probe 16812942 (NTRK3): 1.186
  Log fold change, probe 16920617 (CTCFL): 1.866
LA-N-1 xenografts [2]; [13]
  Log fold change, probe 16837226 (SNORA38B): 1.107
  Log fold change, probe 16902703 (POTEF): 1.124
LA-N-1 xenografts [2]; xenografts C4, C5, C7-C11 vs vehicle V5-V12, 10 mg/kg/day oral, adjusted P 0.39648602
  Log fold change, probe 17103626 (GAGE12G//GAGE12F//GAGE12I//GAGE7//... GAGE family, Entrez 645073): 1.489
LA-N-1 xenografts [2]; xenografts C4, C5, C7-C11 vs vehicle V5-V12, 10 mg/kg/day oral, adjusted P 0.4625512
  Log fold change, probe 17103647 (GAGE2A//GAGE2C//GAGE2B//GAGE2D//... GAGE family, Entrez 729447): 1.341
LA-N-1 xenografts [2]; xenografts C4, C5, C7-C11 vs vehicle V5-V12, 10 mg/kg/day oral, adjusted P 0.47520907
  Log fold change, probe 17103679 (GAGE2A//GAGE2C//GAGE12G//GAGE12F//... GAGE family, Entrez 729447): 1.318
LA-N-1 xenografts [2]; [14]
  Log fold change, probe 17103614 (GAGE12J//GAGE2D//GAGE2E//GAGE8//... GAGE family, Entrez 729396): 1.191
  Log fold change, probe 17103620 (GAGE13//GAGE12D//GAGE12E//GAGE12B//... GAGE family, Entrez 645051): 1.314
  Log fold change, probe 17103653 (GAGE12C//GAGE12D//GAGE12E//GAGE12G//... GAGE family, Entrez 729422): 1.354
  Log fold change, probe 17103655 (GAGE12C//GAGE12D//GAGE12E//GAGE12H//... GAGE family, Entrez 729422): 1.313
  Log fold change, probe 17103673 (GAGE12G//GAGE12C//... GAGE family, Entrez 645073): 1.257
  Log fold change, probe 17103690 (GAGE12H//GAGE12C//GAGE12D//GAGE12E//... GAGE family, Entrez 729442): 1.261
LA-N-1 xenografts [2]; [15]
  Log fold change, probe 16920617 (CTCFL): 1.137
  Log fold change, probe 17104821 (CXorf49//CXorf49B): 1.423
